Assay results published in patent US20210177795A1 (priority 2017, published 2021).
“Also recorded” adds a separate entry of the source.

Columns and labels:
[1] = mouse, in vivo
IL-10 = system: IL-10; set-up: species or system C57BL/6 mice; conditions: mouse, in vivo
cytokines/chemokines = system: cytokines/chemokines; set-up: species or system C57BL/6 mice; conditions: mouse, in vivo
KC = system: KC; set-up: species or system C57BL/6 mice; conditions: mouse, in vivo
RANTES = system: RANTES; set-up: species or system C57BL/6 mice; conditions: mouse, in vivo
[2] = system: Udorn influenza virus (A/Udorn/307/72 (H3N2)); set-up: species or system C57BL/6 mice; conditions: mouse, in vivo
IL-6 = system: IL-6; set-up: species or system C57BL/6 mice; conditions: mouse, in vivo
MCP-1 = system: MCP-1; set-up: species or system C57BL/6 mice; conditions: mouse, in vivo

CCCCCCCCCCCCCCCC(=O)OCC(CSC[C@H](N)C(=O)N[C@@H](CO)C(=O)N[C@@H](CO)C(=O)NCCOCCOCCOCCOCCOCCOCCOCCOCCOCCOCCOCCOCCC(=O)NCC(N)=O)OC(=O)CCCCCCCCCCCCCCC (stereo partly drawn) [INNA-003, PEG-S—S-Pam2Cys]
greatest weight loss [1]: 1.89%±1.15%

CCC(=O)OCC(CSCC(N)C(=O)NC(CO)C(=O)NCCOCC(=O)NCC(N)=O)OC(=O)CC (stereo not drawn) [INNA-006, PEG-S-Pam2Cys]
greatest weight loss [1]: 1.87%±1.33% | IL-10 level in nasal turbinates (IL-10): ~17 pg/mL | fold increase of IL-10 in nasal turbinates vs saline (IL-10): 2 fold | cytokine/chemokine levels in nasal turbinates, lungs and sera, 3 repeat doses vs single dose (cytokines/chemokines): marked decrease | cytokine/chemokine profiles in lungs, trachea and sera, single vs triple dose regimes (cytokines/chemokines): no discernible differences | proinflammatory cytokines and chemokines including IL-6, KC & MCP-1 in nasal turbinates vs saline (cytokines/chemokines): increases were detected in a dose-dependent manner | KC in the lungs compared to the saline control (KC): no significance | KC level in lungs (KC): ~14 pg/mL | KC level in nasal turbinates (KC): ~83 pg/mL | KC levels in the lung (KC): ~16.3 pg/mL | fold increase of KC in nasal turbinates vs saline (KC): 2 fold | fold increase of KC secretion in lungs compared to INNA-003 (KC): 2 fold | fold increase of KC secretion in lungs compared to saline control (KC): 3 fold | RANTES level in nasal turbinates (RANTES): ~141 pg/mL | RANTES secretion in nasal turbinates compared to INNA-003 (RANTES): increased RANTES secretion | fold increase of RANTES in nasal turbinates vs saline (RANTES): 1.9 fold | progression of influenza virus to the lungs [2]: significantly inhibited; also recorded: partial inhibition | IL-6 in nasal turbinates, fold lower with 3 doses vs single dose (IL-6): approximately 25 fold | fold increase in IL-6 levels in nasal turbinates vs saline (IL-6): 98 fold | MCP-1 level in nasal turbinates (MCP-1): ~66 pg/mL | fold increase of MCP-1 in nasal turbinates vs saline (MCP-1): 7 fold

PEG-[Arg]4-Ser-Ser-Pam2Cys [INNA-002]
antiviral effect across doses [2]: dose-dependent antiviral-effect | progression of influenza virus to the lungs [2]: inhibited; also recorded: partial inhibition
